Results from ChEMBL document CHEMBL4145544, “Discovery and optimization of 1-(1H-indol-1-yl)ethanone derivatives as CBP/EP300 bromodomain inhibitors for the treatment of castration-resistant prostate cancer” (Eur J Med Chem, 2018).
The source made the active and inactive calls. The rule behind the calls is not given here.

How the values were obtained:
LNCaP [1] = experiment: Antiproliferative activity against human LNCAP cells after 72 hrs by Cell-Titer Glo assay; assay type: functional, cell-based
LNCaP [2] = experiment: Potency index, ratio of enzalutamide IC50 to compound IC50 for antiproliferative activity against human LNCAP cells; assay type: functional
CWR22R [3] = experiment: Potency index, ratio of enzalutamide IC50 to compound IC50 for antiproliferative activity against human 22Rv1 cells; assay type: functional
CWR22R [4] = experiment: cells; settings: Homo sapiens, 22Rv1, 72 h
Description: (§1) Antiproliferative activity against human 22Rv1 cells after 72 hrs by Cell-Titer Glo assay

CREB-binding protein [5] = target: T1, CREB-binding protein (Homo sapiens, UniProt Q92793); experiment: Inhibition of biotinylated-H4KAc4 binding to human His6-tagged CBP (R1081 to G1197 residues) expressed in Escherichia coli BL21(DE3) after 2.5 hrs by luminescence-based AlphaScreen assay
[6] = target: T2, Histone acetyltransferase p300 (Homo sapiens, UniProt Q09472); experiment: Inhibition of biotinylated-H4KAc4 binding to human His6-tagged EP300 (A1040 to G1161 residues) expressed in Escherichia coli BL21(DE3) after 2.5 hrs by luminescence-based AlphaScreen assay
T2 sequence (Q09472 whole entry, the tested form may be a part): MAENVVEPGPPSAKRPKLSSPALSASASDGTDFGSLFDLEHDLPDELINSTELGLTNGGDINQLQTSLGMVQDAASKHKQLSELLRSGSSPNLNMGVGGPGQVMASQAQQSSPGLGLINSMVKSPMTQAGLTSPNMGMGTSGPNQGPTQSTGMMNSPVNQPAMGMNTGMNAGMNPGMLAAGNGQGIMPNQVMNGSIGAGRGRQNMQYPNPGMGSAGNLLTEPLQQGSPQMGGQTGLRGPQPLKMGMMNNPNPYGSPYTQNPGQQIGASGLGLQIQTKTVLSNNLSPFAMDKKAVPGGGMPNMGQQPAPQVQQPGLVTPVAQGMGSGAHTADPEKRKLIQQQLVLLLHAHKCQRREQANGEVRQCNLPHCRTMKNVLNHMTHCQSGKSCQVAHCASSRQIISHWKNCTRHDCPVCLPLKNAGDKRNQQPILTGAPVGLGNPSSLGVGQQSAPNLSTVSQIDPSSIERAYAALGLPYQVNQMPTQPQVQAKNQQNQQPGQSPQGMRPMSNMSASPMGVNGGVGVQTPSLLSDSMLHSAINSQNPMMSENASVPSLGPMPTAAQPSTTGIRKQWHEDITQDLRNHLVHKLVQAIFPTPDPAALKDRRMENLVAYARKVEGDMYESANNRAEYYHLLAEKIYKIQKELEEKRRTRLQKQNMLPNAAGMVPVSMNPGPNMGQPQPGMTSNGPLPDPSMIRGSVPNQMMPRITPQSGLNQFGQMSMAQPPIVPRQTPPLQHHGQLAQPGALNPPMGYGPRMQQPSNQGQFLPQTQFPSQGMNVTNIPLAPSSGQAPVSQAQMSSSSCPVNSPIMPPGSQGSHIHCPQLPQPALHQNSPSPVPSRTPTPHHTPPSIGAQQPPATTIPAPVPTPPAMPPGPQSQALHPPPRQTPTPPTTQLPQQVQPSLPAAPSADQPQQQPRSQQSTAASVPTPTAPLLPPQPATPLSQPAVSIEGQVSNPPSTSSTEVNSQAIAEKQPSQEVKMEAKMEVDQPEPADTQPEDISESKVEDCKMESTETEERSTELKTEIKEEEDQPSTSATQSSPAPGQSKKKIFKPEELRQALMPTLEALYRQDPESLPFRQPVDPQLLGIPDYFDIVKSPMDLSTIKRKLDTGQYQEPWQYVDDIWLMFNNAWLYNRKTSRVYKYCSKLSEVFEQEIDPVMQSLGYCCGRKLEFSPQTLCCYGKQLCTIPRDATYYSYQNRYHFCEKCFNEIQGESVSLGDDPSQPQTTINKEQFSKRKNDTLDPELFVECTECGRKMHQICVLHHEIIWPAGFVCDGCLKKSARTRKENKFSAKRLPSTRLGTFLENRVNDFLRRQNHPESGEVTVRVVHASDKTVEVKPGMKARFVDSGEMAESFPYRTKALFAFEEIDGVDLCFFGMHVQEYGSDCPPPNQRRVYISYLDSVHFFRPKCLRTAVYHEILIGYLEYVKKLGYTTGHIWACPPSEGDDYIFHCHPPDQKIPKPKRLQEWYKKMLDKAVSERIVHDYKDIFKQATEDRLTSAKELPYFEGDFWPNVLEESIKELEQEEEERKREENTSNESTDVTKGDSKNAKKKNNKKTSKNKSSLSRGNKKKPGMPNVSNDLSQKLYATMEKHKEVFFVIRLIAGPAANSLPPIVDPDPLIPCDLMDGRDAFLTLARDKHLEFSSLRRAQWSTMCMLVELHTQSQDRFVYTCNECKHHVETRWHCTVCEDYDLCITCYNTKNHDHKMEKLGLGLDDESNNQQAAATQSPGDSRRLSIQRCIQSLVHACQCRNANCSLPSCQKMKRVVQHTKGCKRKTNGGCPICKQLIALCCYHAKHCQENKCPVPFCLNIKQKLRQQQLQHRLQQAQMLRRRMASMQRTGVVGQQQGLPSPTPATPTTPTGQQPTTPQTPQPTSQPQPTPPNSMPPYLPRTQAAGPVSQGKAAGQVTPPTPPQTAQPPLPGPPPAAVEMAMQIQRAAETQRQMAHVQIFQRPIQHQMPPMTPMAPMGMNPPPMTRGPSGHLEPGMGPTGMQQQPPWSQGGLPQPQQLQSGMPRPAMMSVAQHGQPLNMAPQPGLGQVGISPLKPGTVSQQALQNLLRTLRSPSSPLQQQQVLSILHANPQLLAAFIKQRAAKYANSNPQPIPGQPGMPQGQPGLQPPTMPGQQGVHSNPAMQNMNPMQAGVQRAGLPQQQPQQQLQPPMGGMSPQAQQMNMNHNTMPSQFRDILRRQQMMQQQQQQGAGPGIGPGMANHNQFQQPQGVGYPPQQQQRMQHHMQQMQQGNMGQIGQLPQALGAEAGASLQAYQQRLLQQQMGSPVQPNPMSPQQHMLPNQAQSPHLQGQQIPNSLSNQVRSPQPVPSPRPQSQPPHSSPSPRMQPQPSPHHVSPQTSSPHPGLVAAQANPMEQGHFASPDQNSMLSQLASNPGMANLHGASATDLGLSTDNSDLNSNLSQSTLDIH

[7] = target: T3, Bromodomain-containing protein 4 (Homo sapiens, UniProt O60885); experiment: Inhibition of biotinylated-H4KAc4 binding to human His6-tagged BRD4 bromodomain-1 (N44 to E168 residues) expressed in Escherichia coli BL21(DE3) after 2.5 hrs by luminescence-based AlphaScreen assay
[8] = target: T4, Transcription initiation factor TFIID subunit 1 (Homo sapiens, UniProt P21675); experiment: Inhibition of biotinylated-H4KAc4 binding to human His6-tagged TAF-1 (R1377 to D1503 residues) expressed in Escherichia coli BL21(DE3) after 2.5 hrs by luminescence-based AlphaScreen assay
T4 sequence (P21675 whole entry, the tested form may be a part): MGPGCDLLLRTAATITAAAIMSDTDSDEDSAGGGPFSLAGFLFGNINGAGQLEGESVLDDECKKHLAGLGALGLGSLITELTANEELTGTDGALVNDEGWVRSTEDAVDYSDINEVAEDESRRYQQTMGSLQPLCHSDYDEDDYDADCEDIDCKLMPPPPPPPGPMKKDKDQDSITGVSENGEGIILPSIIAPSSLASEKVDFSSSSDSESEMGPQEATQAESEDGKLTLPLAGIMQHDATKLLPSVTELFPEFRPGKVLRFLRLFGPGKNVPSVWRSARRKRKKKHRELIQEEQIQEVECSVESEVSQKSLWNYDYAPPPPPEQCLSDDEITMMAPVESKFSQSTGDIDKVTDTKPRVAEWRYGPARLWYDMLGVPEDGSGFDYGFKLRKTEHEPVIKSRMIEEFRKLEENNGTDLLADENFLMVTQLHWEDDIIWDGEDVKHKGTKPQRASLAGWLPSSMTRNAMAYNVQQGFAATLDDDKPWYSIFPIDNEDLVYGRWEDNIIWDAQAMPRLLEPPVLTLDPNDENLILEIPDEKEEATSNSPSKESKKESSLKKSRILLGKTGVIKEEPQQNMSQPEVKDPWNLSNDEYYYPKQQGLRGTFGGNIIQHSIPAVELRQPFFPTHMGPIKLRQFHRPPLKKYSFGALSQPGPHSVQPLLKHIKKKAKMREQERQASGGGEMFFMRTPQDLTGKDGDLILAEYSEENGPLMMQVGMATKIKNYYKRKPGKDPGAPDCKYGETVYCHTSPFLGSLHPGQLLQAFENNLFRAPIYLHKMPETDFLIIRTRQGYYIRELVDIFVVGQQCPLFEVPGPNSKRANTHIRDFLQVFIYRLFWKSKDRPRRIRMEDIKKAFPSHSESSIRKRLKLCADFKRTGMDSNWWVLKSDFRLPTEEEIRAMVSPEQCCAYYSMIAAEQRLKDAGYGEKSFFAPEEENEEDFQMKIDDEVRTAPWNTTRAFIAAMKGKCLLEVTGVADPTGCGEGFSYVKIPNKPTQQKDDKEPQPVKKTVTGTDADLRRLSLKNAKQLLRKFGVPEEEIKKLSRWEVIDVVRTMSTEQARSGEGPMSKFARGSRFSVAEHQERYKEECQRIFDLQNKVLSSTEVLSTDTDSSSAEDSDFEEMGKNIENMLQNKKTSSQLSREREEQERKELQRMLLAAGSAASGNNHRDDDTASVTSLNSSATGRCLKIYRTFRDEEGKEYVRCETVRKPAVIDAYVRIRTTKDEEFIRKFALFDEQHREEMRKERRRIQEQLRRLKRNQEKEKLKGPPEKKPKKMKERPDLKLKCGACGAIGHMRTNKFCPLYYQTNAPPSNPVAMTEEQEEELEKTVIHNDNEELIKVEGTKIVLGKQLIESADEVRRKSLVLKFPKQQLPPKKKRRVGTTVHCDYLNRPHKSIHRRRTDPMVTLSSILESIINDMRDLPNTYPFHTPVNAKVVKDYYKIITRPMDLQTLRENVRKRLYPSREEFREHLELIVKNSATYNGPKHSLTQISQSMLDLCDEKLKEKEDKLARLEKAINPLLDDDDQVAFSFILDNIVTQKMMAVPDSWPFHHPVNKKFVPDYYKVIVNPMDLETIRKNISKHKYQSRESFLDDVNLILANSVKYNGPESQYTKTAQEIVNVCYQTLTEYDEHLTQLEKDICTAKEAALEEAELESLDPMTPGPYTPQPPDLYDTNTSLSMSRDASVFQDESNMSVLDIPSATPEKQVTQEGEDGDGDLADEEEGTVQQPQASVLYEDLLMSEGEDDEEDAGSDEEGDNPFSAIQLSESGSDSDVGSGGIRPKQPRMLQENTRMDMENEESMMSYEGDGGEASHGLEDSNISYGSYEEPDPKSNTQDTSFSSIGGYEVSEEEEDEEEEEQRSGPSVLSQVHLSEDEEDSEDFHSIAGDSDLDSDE

[9] = target: T5, Bromodomain adjacent to zinc finger domain protein 2B (Homo sapiens, UniProt Q9UIF8); experiment: Inhibition of biotinylated-H4KAc4 binding to human His6-tagged BAZ2B (S1858 to S1972 residues) expressed in Escherichia coli BL21(DE3) after 2.5 hrs by luminescence-based AlphaScreen assay
[10] = target: T6, Bromodomain-containing protein 9 (Homo sapiens, UniProt Q9H8M2); experiment: Inhibition of biotinylated-H4KAc4 binding to human His6-tagged BRD9 (L14 to Q134 residues) expressed in Escherichia coli BL21(DE3) after 2.5 hrs by luminescence-based AlphaScreen assay
T6 sequence (Q9H8M2 whole entry): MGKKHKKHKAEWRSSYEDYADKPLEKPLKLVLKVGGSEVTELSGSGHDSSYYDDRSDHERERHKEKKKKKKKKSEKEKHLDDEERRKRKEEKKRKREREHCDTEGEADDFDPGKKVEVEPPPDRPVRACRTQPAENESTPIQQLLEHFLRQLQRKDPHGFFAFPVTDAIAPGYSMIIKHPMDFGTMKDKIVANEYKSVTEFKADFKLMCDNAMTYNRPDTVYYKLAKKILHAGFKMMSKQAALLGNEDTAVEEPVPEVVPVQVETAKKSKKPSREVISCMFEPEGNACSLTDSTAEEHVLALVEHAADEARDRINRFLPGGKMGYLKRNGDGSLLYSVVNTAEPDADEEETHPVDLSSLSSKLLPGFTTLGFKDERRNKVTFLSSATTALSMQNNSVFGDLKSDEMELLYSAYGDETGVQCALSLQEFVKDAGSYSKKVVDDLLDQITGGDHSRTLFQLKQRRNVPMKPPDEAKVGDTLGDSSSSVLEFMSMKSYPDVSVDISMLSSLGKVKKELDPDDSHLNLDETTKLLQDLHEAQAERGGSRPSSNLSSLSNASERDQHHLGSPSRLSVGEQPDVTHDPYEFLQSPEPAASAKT

[11] = target: T7, Transcription intermediary factor 1-alpha (Homo sapiens, UniProt O15164); experiment: Inhibition of biotinylated-H4KAc4 binding to human His6-tagged TIF-1 (G896 to E1014 residues) expressed in Escherichia coli BL21(DE3) after 2.5 hrs by luminescence-based AlphaScreen assay
T7 sequence (O15164 whole entry): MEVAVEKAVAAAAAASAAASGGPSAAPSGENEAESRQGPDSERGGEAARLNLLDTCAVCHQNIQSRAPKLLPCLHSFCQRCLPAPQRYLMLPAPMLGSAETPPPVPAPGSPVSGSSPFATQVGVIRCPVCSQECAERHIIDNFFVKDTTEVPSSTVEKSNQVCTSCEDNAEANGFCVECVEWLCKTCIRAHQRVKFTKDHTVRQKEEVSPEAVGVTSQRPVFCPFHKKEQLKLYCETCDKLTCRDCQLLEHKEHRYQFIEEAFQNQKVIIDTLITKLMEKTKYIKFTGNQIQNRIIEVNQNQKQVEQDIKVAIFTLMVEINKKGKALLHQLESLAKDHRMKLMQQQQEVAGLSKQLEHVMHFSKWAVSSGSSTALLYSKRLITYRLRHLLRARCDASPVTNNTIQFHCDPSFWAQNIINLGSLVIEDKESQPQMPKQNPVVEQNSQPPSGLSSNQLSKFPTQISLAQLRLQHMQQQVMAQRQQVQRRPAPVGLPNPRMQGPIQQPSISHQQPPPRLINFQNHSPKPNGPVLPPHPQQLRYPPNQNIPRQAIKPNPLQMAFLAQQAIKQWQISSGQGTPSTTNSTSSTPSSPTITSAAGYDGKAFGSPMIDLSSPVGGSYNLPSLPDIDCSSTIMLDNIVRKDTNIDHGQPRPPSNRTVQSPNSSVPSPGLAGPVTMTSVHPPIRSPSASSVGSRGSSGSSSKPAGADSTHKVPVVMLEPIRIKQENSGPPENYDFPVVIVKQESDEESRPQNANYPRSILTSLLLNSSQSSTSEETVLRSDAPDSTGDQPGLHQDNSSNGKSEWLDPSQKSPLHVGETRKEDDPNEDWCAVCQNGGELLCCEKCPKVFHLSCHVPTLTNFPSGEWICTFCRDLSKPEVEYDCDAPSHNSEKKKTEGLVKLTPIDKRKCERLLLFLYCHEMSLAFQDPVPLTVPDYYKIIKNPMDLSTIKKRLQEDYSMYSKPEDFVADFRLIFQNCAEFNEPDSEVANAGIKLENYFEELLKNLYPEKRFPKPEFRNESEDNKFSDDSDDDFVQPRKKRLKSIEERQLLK

[12] = target: T8, Histone acetyltransferase KAT2B (Homo sapiens, UniProt Q92831); experiment: Inhibition of biotinylated-H4KAc4 binding to human His6-tagged PCAF (G715 to D831 residues) expressed in Escherichia coli BL21(DE3) after 2.5 hrs by luminescence-based AlphaScreen assay
Target sequence in this assay (Q92831 whole entry, the tested form may be a part): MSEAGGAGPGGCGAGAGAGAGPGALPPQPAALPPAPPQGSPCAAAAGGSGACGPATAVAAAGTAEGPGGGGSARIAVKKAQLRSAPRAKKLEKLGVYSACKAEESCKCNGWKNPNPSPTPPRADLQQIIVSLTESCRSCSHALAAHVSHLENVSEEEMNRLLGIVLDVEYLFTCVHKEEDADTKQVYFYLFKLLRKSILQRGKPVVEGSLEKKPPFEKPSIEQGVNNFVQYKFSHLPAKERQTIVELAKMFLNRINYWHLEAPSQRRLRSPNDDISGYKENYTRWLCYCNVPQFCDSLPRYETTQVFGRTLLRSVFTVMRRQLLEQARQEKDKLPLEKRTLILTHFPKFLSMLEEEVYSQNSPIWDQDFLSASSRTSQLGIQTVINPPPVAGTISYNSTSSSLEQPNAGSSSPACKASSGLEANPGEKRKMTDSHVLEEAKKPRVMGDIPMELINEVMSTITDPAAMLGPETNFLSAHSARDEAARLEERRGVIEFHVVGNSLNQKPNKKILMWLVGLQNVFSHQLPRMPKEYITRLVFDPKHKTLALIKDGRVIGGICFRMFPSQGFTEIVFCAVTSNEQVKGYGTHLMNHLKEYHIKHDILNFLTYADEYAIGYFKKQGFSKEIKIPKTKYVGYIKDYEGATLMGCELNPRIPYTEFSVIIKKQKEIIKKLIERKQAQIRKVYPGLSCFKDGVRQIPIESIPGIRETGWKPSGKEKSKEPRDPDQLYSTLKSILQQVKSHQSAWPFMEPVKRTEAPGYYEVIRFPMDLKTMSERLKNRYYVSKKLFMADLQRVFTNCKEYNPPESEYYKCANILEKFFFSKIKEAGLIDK

CREB-binding protein [13] = target: T1, CREB-binding protein; experiment: Binding affinity to human His6-tagged CBP (R1081 to G1197 residues) expressed in Escherichia coli BL21(DE3) assessed as change in melting temperature at 200 uM after 30 mins by SYPRO orange dye based fluorescence assay
[14] = target: T2, Histone acetyltransferase p300; experiment: Binding affinity to human His6-tagged EP300 (A1040 to G1161 residues) expressed in Escherichia coli BL21(DE3) assessed as change in melting temperature at 200 uM after 30 mins by SYPRO orange dye based fluorescence assay
[15] = target: T8, Histone acetyltransferase KAT2B; experiment: Binding affinity to human His6-tagged PCAF (G715 to D831 residues) expressed in Escherichia coli BL21(DE3) assessed as change in melting temperature at 200 uM after 30 mins by SYPRO orange dye based fluorescence assay
[16] = target: Bromodomain-containing protein 9 (Homo sapiens) (UniProt Q9H8M2); experiment: Binding affinity to human His6-tagged BRD9 (L14 to Q134 residues) expressed in Escherichia coli BL21(DE3) assessed as change in melting temperature at 200 uM after 30 mins by SYPRO orange dye based fluorescence assay
[17] = target: T4, Transcription initiation factor TFIID subunit 1; experiment: Binding affinity to human His6-tagged TAF-1 (R1377 to D1503 residues) expressed in Escherichia coli BL21(DE3) assessed as change in melting temperature at 200 uM after 30 mins by SYPRO orange dye based fluorescence assay
[18] = target: T5, Bromodomain adjacent to zinc finger domain protein 2B; experiment: Binding affinity to human His6-tagged BAZ2B (S1858 to S1972 residues) expressed in Escherichia coli BL21(DE3) assessed as change in melting temperature at 200 uM after 30 mins by SYPRO orange dye based fluorescence assay
[19] = target: Transcription intermediary factor 1-alpha (Homo sapiens) (UniProt O15164); experiment: Binding affinity to human His6-tagged TIF-1 (G896 to E1014 residues) expressed in Escherichia coli BL21(DE3) assessed as change in melting temperature at 200 uM after 30 mins by SYPRO orange dye based fluorescence assay
[20] = target: T3, Bromodomain-containing protein 4; experiment: Binding affinity to human His6-tagged BRD4 bromodomain-1 (N44 to E168 residues) expressed in Escherichia coli BL21(DE3) assessed as change in melting temperature at 200 uM after 30 mins by SYPRO orange dye based fluorescence assay
CWR22R [21] = experiment: Anticlonogenic activity against human 22Rv1 cells after 14 days by crystal violet staining based assay; assay type: functional, cell-based
LNCaP C4-2B = experiment: Anticlonogenic activity against human C4-2B cells after 14 days by crystal violet staining based assay; assay type: functional, cell-based
CWR22R [22] = tested on: CWR22R
Description: as §1

Compound	IC50 (CREB-binding protein [5]) [µM]	IC50 [6] [µM]	IC50 [7] [µM]	IC50 [8] [µM]	IC50 [9] [µM]	IC50 [10] [µM]	IC50 [11] [µM]	IC50 [12] [µM]	ΔTm (CREB-binding protein [13]) [°C]	ΔTm [14] [°C]	ΔTm [15] [°C]	ΔTm [16] [°C]	ΔTm [17] [°C]	ΔTm [18] [°C]	ΔTm [19] [°C]	ΔTm [20] [°C]	IC50 (LNCaP [1]; lncap)	IC50 (CWR22R [22])	Activity (CWR22R [21])	Activity (LNCaP C4-2B)	further results
COc1ccc2c(c1)c(C(=O)Nc1cc(C(=O)OC(C)(C)C)cc(-c3ccco3)c1)cn2C(C)=O																					IC50 (LNCaP [1]; Homo sapiens, LNCaP, 72 h, read-out: IC50): 1.76 µM; Ratio IC50 (LNCaP [2]): 17; Ratio IC50 (CWR22R [3]): 17; IC50 (CWR22R [4]): 4.31 µM
CC(=O)n1cc(C(=O)Nc2cc(COC3CCCCO3)cc(C(=O)O)c2)c2ccccc21 (configuration not stated)	1	2.51	> 20	> 20	> 20	> 20	> 20	> 20													
COc1ccc2c(c1)c(C(=O)Nc1cc(C(=O)O)cc(-c3cnn(C)c3)c1F)cn2C(C)=O	0.037	0.049	> 20	> 20	> 20	> 20	> 20	> 20	8.7	7.2	-0.3	0.9	0.6	0.3	0	1.2	Not Active	Not Active	inactive	inactive	

Now from value to compound, other results behind:

IC50 (CREB-binding protein [5]) [µM]	IC50 [6] [µM]	IC50 [7] [µM]	IC50 [8] [µM]	IC50 [9] [µM]	IC50 [10] [µM]	IC50 [11] [µM]	IC50 [12] [µM]	ΔTm (CREB-binding protein [13]) [°C]	ΔTm [14] [°C]	ΔTm [15] [°C]	ΔTm [16] [°C]	ΔTm [17] [°C]	ΔTm [18] [°C]	ΔTm [19] [°C]	ΔTm [20] [°C]	IC50 (LNCaP [1]; lncap)	IC50 (CWR22R [22])	Compound	Activity (CWR22R [21])	Activity (LNCaP C4-2B)	further results
0.16	0.51	> 20	> 20	> 20	> 20	> 20	> 20	5.7	5.7	-1.5	-0.9	0.9	1.5	-0.3	1.1	Not Active	Not Active	COc1ccc2c(c1)c(C(=O)Nc1cc(C(=O)O)cc(-c3cnn(C)c3)c1)cn2C(C)=O	inactive	inactive	
0.14	1.78	> 20	> 20	12.2	> 20	> 20	> 20									Not Active	Not Active	COc1ccc2c(c1)c(C(=O)Nc1cc(C(=O)O)cc(-c3ccco3)c1)cn2C(C)=O			
